The text below walks through data of patent publication US7122577B1, “Composition comprising a carrier and a purified mycobacterial lipid cell-wall component and its use in the treatment and diagnosis of disease” (priority 1997, dated 2006).

The subject of the series is adjuvant arthritis. To be noted: rat, in vivo.

As for mycolic acids [MA tb], the Toxic effects entry is on record as “No toxic effects” and the “Toxic effects within the tested doses” value is “No toxic effects”.
